From patent US20090138988A1, “MODIFICATION OF PLANT DISEASE RESISTANCE” (priority 2007, published 2009)

System: P. syringae pv. tabaci
Assay: Squalene complementation of SQS1 RNAi line resistance to nonhost pathogen
Type: in vivo, Arabidopsis
Procedure: Squalene was supplied at the concentration as indicated above each panel when transplanting two-week old seedlings and thereafter watering. P. syringae pv. tabaci was infiltrated into leaves of four-week old plants at 1×10^7 cfu/ml. The inoculated plants were kept at 19-21° C. and covered to keep high humidity. Pictures were taken 3 days post inoculation
It was hypothesized that SQS1 RNAi lines would have less squalene compared to wild-type plants. Arabidopsis has two SQS genes: SQS1 and SQS2. T-DNA knockout lines for SQS2 are not available in SALK or GABI collections. Even though both SQS1 and SQS2 have more than 80% nucleotide identity, in the SQS1 RNAi line, only the transcripts of SQS1 was reduced but not SQS2 (FIG. 10). A brief pathway of sterol biosynthesis in plants and also other pathways that may be affected by silencing of SQS1 are shown in FIG. 11. […] It was therefore shown that squalene plays a critical role in conferring nonhost resistance against certain pathogens, and the role is recoverable in susceptible RNAi lines by squalene dosing.

## CC(C)=CCC/C(C)=C/CC/C(C)=C/CC/C=C(\C)CC/C=C(\C)CCC=C(C)C [squalene]
10 μM squalene fed, P. syringae pv. tabaci 1×10^7 cfu/ml, 3 days post inoculation
  recovery of nonhost resistance of SQS1 RNAi lines: completely recovered resistance phenotype back to wild-type levels
Squalene fed at 1 μM to 10 μM, P. syringae pv. tabaci
  recovery of nonhost resistance of SQS1 RNAi lines: recovered nonhost resistance in a dose dependent manner
